The values that follow come from patent US10610608B2, “Modular imaging agents containing amino acids and peptides” (Rochester Institute of Technology, priority 2013, dated 2020).

The experiment deals with live A549 human cancer cells. The experiment can be described thus: Confocal fluorescence microscopy (CFM) of live A549 cells stained with c(RGDyK) peptide conjugates (TMIAs). In kind it is cell-based. Conditions: 5 μM conjugate, 2 hours incubation, 37° C., HeNe633 laser. Here is the method: The general protocol for Confocal Microscopy by Chen, et al was followed with the following detailed procedures for cell culture and staining.
Cell Preparation: An A549 culture obtained from the American Type Culture Collection (ATCC) was grown to 50-70% confluency in an In Vitro Scientific 35 mm culture dish with 10 mm Glass bottom well. The culture was incubated in DMEM (Dulbecco's Modified Eagle Medium) with 10% Fetal Bovine Serum (FBS) overnight at 37° C. and 5% CO2. To obtain a suspension cell culture for transfer purpose, the cells were washed with Phosphate Buffered Saline (PBS) and then 0.25% Trypsin-EDTA (1×) (Invitrogen) was added to detach the cells.
Cell Staining: The cells were washed 3× with pre-heated PBS (Phosphate-buffered saline). 5 μM c(RGDyK) peptide conjugates (TMIAs) were added to the 10 mm glass bottom well and incubated at 37° C. and 5% CO2. Cells were then washed 4× with chilled PBS. The samples were viewed immediately under the scanning laser confocal microscope (Leica Microsystems Inc.). Confocal Microscopy Scanning: Leica TCS SP5 II AOBS Filter Free Tunable Spectral Confocal Research Microscope with Resonant Scanner and Hybrid Detectors attached to Leica DMI6000 Fully Automated Microscope was used, with 40× water immersion objective. The 405 Diode and HeNe633 lasers were employed for visualizing suspected auto-fluorescence, c(RGDyK) Cy5.5-TMIA respectively. […]

For the substance “c(RGDyK)-SMCC-DLys(Cy5.5)-Lys(Gd-DOTA)-NH2 [Compound (44)]”, the “CFM image: fluorescence of the TMIA in the cell” value is reported as “illuminated areas a result of fluorescence of the TMIA”.
